Assay results reported in US20140288073A1, “Method of Treating Gastrointestinal Stromal Tumors” (NOVARTIS AG, priority 2011, published 2014).
“Also recorded” adds a separate entry of the source.

Columns and labels:
GIST-T1 cells = experiment: CellTiter-Glo cell viability/proliferation assay, GIST-T1; type: cell-based, human; settings: for Inhibition of proliferation as single agent: GIST-T1 (ex11del KIT), Example 2; for Combination Index for 70% inhibition of GIST cell proliferation / Synergy Score for inhibition of GIST cell proliferation: Imatinib combined with the compound
Excerpt: (§1) GIST882, GIST48 and GIST430 cell lines were obtained from the Brigham and Women's Hospital, Boston, Mass. GIST882 was established from an untreated human GIST with a homozygous missense mutation in KIT exon 13, encoding a […] mutant KIT protein ([…], et al. Oncogene 2001; 20: 5054-5058). […] GIST48 has a primary homozygous exon 11 missense mutation […]) and a secondary heterozygous exon 17 missense mutation […]). GIST430 has a primary heterozygous exon 11 in-frame deletion and a secondary heterozygous exon 13 missense mutation (V654A). GIST-T1 was obtained from Kochi Medical School, Kochi, Japan. It was established from a metastatic human GIST with a heterozygous […] bases in exon 11 of KIT (Taguchi T, Sonobe H, Toyonaga S, et al. Lab Invest 2002; 82: 663-665). […] Cell proliferation was measured using the CellTiter-Glo luminescent cell viability assay (Promega catalog #G755B) and Victor4 plate reader (Perkin Elmer). Synergy scores and CI70 calculations were determined as described elsewhere (Lehar J, Krueger A S, et al. Nat Biotechnol 2009; 27: 659-666).

GIST882 cells = experiment: CellTiter-Glo cell viability/proliferation assay, GIST882; type: cell-based, human; settings: for Inhibition of proliferation as single agent: GIST882 (K642E mutant KIT), Example 2; for Combination Index for 70% inhibition of GIST cell proliferation / Synergy Score for inhibition of GIST cell proliferation: Imatinib combined with the compound
Excerpt: as §1

GIST cell lines = experiment: Combination effect on growth of GIST cell lines (FIG. 6); type: cell-based, human; settings: combination with nilotinib, presence of 20 ng/ml FGF2, monophosphate
Procedure: FIG. 6: Combination effect of nilotinib plus BGJ398 in GIST cell lines in the presence of 20 ng/ml FGF2.
10,000 cells suspended in 80 μl media were seeded into each well of a 96-well cell-culture plate and grown for 24 hours prior to treatment. 10 μl of 60 μg/mL heparin (Sigma Catalog # H3149) was added to each well, and then 10 μl of 50 μg/mL FGF2 (R&D Catalog #233-FB/CF) or media was added to each well of the plates. 10 μl of each of the compound dilutions described above and 10 μl of media were added to wells to a final volume 120 μl such that all pair-wise combinations as well as the single agents were represented. Cells were incubated for 72 hrs at 37° C. in a 5% CO2 incubator following compound addition. Cell proliferation was measured using the CellTiter-Glo luminescent cell viability assay (Promega catalog #G755B) and Victor4 plate reader (Perkin Elmer). Synergy scores and CI70 calculations were determined as described elsewhere (Lehar J, Krueger A S, et al. Nat Biotechnol 2009; 27: 659-666).

GIST430 cells = experiment: CellTiter-Glo cell viability/proliferation assay, GIST430; type: cell-based, human; settings: for Inhibition of proliferation as single agent: GIST430 (ex11del/V654A KIT), Example 2; for Growth suppression in combination with imatinib versus single agent treatment / Combination Index for 70% inhibition of GIST cell proliferation / Synergy Score for inhibition of GIST cell proliferation: GIST430; for Combination Index for 70% inhibition of GIST cell proliferation / Synergy Score for inhibition of GIST cell proliferation: Imatinib combined with the compound
Excerpt: as §1

GIST48 cells = experiment: CellTiter-Glo cell viability/proliferation assay, GIST48; type: cell-based, human; settings: for Inhibition of proliferation as single agent: Example 2; for Combination Index for 70% inhibition of GIST cell proliferation / Synergy Score for inhibition of GIST cell proliferation: Imatinib combined with the compound
Excerpt: as §1

GIST [1] = settings: cited from earlier work
GIST [2] = settings: cited from earlier work; remark: listed apart in the source
[3] = GIST-T1, absence of FGF2, 3 days
[4] = GIST-T1, presence of added FGF2, 3 days
[5] = GIST882, absence of FGF2, 3 days
[6] = GIST882, presence of added FGF2, 3 days
[7] = GIST882, combination with imatinib

## CCN1CCN(c2ccc(Nc3cc(N(C)C(=O)Nc4c(Cl)c(OC)cc(OC)c4Cl)ncn3)cc2)CC1.O=P(O)(O)O [BGJ398, 3-(2,6-dichloro-3,5-dimethoxy-phenyl)-1-{6-[4-(4-ethyl-piperazin-1-yl)-phenylamino]-pyrimid-4-yl}-1-methyl-urea monophosphate]
GIST-T1 cells; [3]
  Growth inhibition as single agent: did not significantly affect the viability
GIST-T1 cells; GIST-T1, combination with imatinib, presence of FGF2 (20 ng/ml)
  Combination effect on growth inhibition: strong combination effects
GIST-T1 cells; [4]
  Growth inhibition as single agent: did not significantly affect the viability
GIST882 cells; [5]
  Growth inhibition as single agent: did not significantly affect the viability
GIST882 cells; GIST882, combination with imatinib, presence of FGF2 (20 ng/ml)
  Combination effect on growth inhibition: strong combination effects
GIST882 cells; [6]
  Growth inhibition as single agent: did not significantly affect the viability
GIST cell lines
  Combination effect on growth inhibition: strong combination effects; also recorded: synergy

## Cn1c(=O)n(-c2ccc(C(C)(C)C#N)cc2)c2c3cc(-c4cnc5ccccc5c4)ccc3ncc21 [COMPOUND A, 2-methyl-2-[4-(3-methyl-2-oxo-8-quinolin-3-yl-2,3-dihydro-imidazo[4,5-c]quinolin-1-yl)-phenyl]-propionitrile]
GIST430 cells
  Inhibition of proliferation as single agent: inhibited the proliferation of all four cell-lines at low micromolar concentrations
  Growth suppression in combination with imatinib versus single agent treatment: growth suppression was observed in excess of the percent inhibition achieved by imatinib or COMPOUND A single agent treatment
  Combination Index for 70% inhibition of GIST cell proliferation: 0.260
  Synergy Score for inhibition of GIST cell proliferation: 2.06
GIST-T1 cells
  Inhibition of proliferation as single agent: inhibited the proliferation of all four cell-lines at low micromolar concentrations
GIST-T1 cells; GIST-T1
  Combination Index for 70% inhibition of GIST cell proliferation: 0.493
  Synergy Score for inhibition of GIST cell proliferation: 1.10
GIST882 cells
  Inhibition of proliferation as single agent: inhibited the proliferation of all four cell-lines at low micromolar concentrations
GIST882 cells; [7]
  Growth suppression in combination with imatinib versus single agent treatment: growth suppression was observed in excess of the percent inhibition achieved by imatinib or COMPOUND A single agent treatment
GIST882 cells; GIST882
  Combination Index for 70% inhibition of GIST cell proliferation: 0.194
  Synergy Score for inhibition of GIST cell proliferation: 5.07
GIST48 cells
  Inhibition of proliferation as single agent: inhibited the proliferation of all four cell-lines at low micromolar concentrations
  Combination Index for 70% inhibition of GIST cell proliferation: 1.25
  Synergy Score for inhibition of GIST cell proliferation: 0.38

## Nc1cc(C(F)(F)F)c(-c2cc(N3CCOCC3)nc(N3CCOCC3)n2)cn1 [COMPOUND C, 5-(2,6-di-morpholin-4-yl-pyrimidin-4-yl)-4-trifluoromethyl-pyridin-2-ylamine]
GIST430 cells
  Inhibition of proliferation as single agent: inhibited the proliferation of all four cell-lines at low micromolar concentrations
  Growth suppression in combination with imatinib versus single agent treatment: growth suppression was observed in excess of the percent inhibition achieved by imatinib or COMPOUND C single agent treatment
  Combination Index for 70% inhibition of GIST cell proliferation: 0.252
  Synergy Score for inhibition of GIST cell proliferation: 1.96
GIST-T1 cells
  Inhibition of proliferation as single agent: inhibited the proliferation of all four cell-lines at low micromolar concentrations
GIST-T1 cells; GIST-T1
  Combination Index for 70% inhibition of GIST cell proliferation: 0.782
  Synergy Score for inhibition of GIST cell proliferation: 1.29
GIST882 cells
  Inhibition of proliferation as single agent: inhibited the proliferation of all four cell-lines at low micromolar concentrations
GIST882 cells; [7]
  Growth suppression in combination with imatinib versus single agent treatment: growth suppression was observed in excess of the percent inhibition achieved by imatinib or COMPOUND C single agent treatment
GIST882 cells; GIST882
  Combination Index for 70% inhibition of GIST cell proliferation: 0.597
  Synergy Score for inhibition of GIST cell proliferation: 1.90
GIST48 cells
  Inhibition of proliferation as single agent: inhibited the proliferation of all four cell-lines at low micromolar concentrations
  Combination Index for 70% inhibition of GIST cell proliferation: 0.716
  Synergy Score for inhibition of GIST cell proliferation: 1.20

## Cc1nc(NC(=O)N2CCC[C@H]2C(N)=O)sc1-c1ccnc(C(C)(C)C(F)(F)F)c1 [COMPOUND D, (S)-pyrrolidine-1,2-dicarboxylic acid 2-amide 1-({4-methyl-5-[2-(2,2,2-trifluoro-1,1-dimethyl-ethyl)-pyridin-4-yl]-thiazol-2-yl}-amide)]
GIST430 cells
  Inhibition of proliferation as single agent: little or no effect
  Growth suppression in combination with imatinib versus single agent treatment: growth suppression was observed in excess of the percent inhibition achieved by imatinib or COMPOUND D single agent treatment
  Combination Index for 70% inhibition of GIST cell proliferation: 0.791
  Synergy Score for inhibition of GIST cell proliferation: 2.04
GIST-T1 cells
  Inhibition of proliferation as single agent: little or no effect
GIST-T1 cells; GIST-T1
  Combination Index for 70% inhibition of GIST cell proliferation: 0.988
  Synergy Score for inhibition of GIST cell proliferation: 1.06
GIST882 cells
  Inhibition of proliferation as single agent: little or no effect
GIST882 cells; GIST882
  Synergy Score for inhibition of GIST cell proliferation: 0.46
GIST48 cells
  Inhibition of proliferation as single agent: little or no effect
  Combination Index for 70% inhibition of GIST cell proliferation: 1.18
  Synergy Score for inhibition of GIST cell proliferation: 1.98
GIST48 cells; combination with imatinib
  Growth suppression in combination with imatinib versus single agent treatment: growth suppression was observed in excess of the percent inhibition achieved by imatinib or COMPOUND D single agent treatment

## Cc1ccc(NC(=O)c2ccc(CN3CCN(C)CC3)cc2)cc1Nc1nccc(-c2cccnc2)n1 [imatinib, 4-(4-methylpiperazin-1-ylmethyl)-N-[4-methyl-3-(4-(pyridin-3-yl)pyrimidin-2-ylamino)phenyl]-benzamide, reference compound]
GIST430 cells
  Inhibition of proliferation as single agent: potently inhibited
GIST-T1 cells
  Inhibition of proliferation as single agent: potently inhibited
GIST-T1 cells; [3]
  Growth inhibition as single agent: efficacious
GIST-T1 cells; [4]
  Growth inhibition as single agent: less sensitive
GIST [1]; 800 mg/day compared to 400 mg/day, advanced GIST harboring KIT exon 9 mutations
  Progression-free survival (PFS): significantly improves
GIST [1]; advanced GIST, first line therapy
  Patients progressing after 2 years of first line therapy: more than 50%
GIST882 cells
  Inhibition of proliferation as single agent: potently inhibited
GIST882 cells; [5]
  Growth inhibition as single agent: efficacious
GIST882 cells; [6]
  Growth inhibition as single agent: less sensitive
GIST [2]; 400 mg/day for 12 months compared with placebo, after complete resection (ACOSOGZ9001)
  Recurrence-free survival (RFS): significantly prolonged
GIST [2]; 36 months versus 12 months adjuvant therapy, 400 mg once daily (SSGXVIII/AIO)
  RFS and overall survival: superior to 12 months
GIST48 cells
  Inhibition of proliferation as single agent: imatinib resistant

## Cc1cn(-c2cc(NC(=O)c3ccc(C)c(Nc4nccc(-c5cccnc5)n4)c3)cc(C(F)(F)F)c2)cn1 [nilotinib, 4-methyl-3-[[4-(3-pyridinyl)-2-pyrimidinyl]amino]-N-[5-(4-methyl-1H-imidazol-1-yl)-3-(trifluoromethyl)phenyl]benzamide, reference compound]
GIST-T1 cells; GIST-T1, 3 days, with vs without added FGF2 (50, 25, 12 ng/ml)
  GI50 shift in the presence of added FGF2: greater than 10 fold
GIST-T1 cells; [3]
  Growth inhibition as single agent: sensitive
GIST882 cells; GIST882, 3 days, with vs without added FGF2 (50, 25, 12 ng/ml)
  GI50 shift in the presence of added FGF2: greater than 10 fold
GIST882 cells; [5]
  Growth inhibition as single agent: sensitive
